The test addresses T1, Human AhR (Homo sapiens, UniProt P35869).
T1 construct: expressed in transfected cells
T1 sequence (P35869 11-848): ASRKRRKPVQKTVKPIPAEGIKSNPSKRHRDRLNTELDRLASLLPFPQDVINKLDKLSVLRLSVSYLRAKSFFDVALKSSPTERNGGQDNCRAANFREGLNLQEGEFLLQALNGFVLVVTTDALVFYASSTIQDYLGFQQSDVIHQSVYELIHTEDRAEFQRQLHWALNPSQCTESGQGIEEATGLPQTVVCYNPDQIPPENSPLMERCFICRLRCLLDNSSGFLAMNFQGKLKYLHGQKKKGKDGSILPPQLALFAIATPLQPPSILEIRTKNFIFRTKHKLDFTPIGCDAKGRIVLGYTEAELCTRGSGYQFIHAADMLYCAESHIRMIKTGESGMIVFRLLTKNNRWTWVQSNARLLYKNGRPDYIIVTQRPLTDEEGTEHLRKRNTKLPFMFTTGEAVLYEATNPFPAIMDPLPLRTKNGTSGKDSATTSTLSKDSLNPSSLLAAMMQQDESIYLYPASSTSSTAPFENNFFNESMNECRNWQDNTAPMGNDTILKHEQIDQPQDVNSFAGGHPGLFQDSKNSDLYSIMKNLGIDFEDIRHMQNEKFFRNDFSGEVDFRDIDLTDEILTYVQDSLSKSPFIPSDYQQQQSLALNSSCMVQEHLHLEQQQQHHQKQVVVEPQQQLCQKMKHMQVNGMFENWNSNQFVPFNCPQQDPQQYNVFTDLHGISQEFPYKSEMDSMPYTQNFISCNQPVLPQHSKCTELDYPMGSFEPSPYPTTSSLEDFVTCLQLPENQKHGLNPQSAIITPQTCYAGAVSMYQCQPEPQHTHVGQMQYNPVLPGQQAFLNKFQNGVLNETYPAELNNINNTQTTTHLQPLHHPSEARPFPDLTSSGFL
The test can be described thus: hAHR Nuclear Translocation Assay. In kind it is cell-based. The following applies: AhR-EGFP nuclear translocation in Jump-In T-REx HEK293 cells, 45 minutes incubation, read-out: Rel EC50. From the text: The purpose of this assay is to measure the ability of compounds to bind to, activate, and induce the translocation of AhR into the nucleus of a cell for transcription. Stable cell lines were established using Jump-InTM T-RExTM HEK293 Retargeting Kit (Life Technologies). Human AhR cDNA was cloned into the pJTI R4 CMV-TO EGFP vector. The EGFP was cloned to the C-terminal of AHR to form AhR-EGFP chimera. The pJTI R4 CMV-TO AhR-EGFP vector was transfected using FuGENE® HD into Jump-InTM T-RExTM HEK293 cells. Transfected cells were selected using 2.5 mg/ml G418 for 10 to 14 days, then expanded, harvested, and suspended in freeze media (FBS with 8% DMSO) at 2×10^7 cells/ml, and aliquots were stored in liquid nitrogen. One day before the assay date, cells were thawed and resuspended in DMEM with 5% FBS in the presence of 1 μg/ml Doxycycline and plated into ploy-L-Lysine coated […]-384 ULTRA Microplates (Perkin Elmer) at 12,000 to 15,000 cells per well and incubated at 37° C. and 5% CO2 overnight. On the assay date, compound was serially diluted (1:2) into 384-well nunc plates with DMSO using acoustic dispensing (ECHO®). The dose response was a 20-point curve. […] The culture media was damped and 25 μl of DMEM plus 0.1% BSA was added, then 25 μL of compound in DMEM plus 0.1% BSA was added into cell plates. Cells were incubated compounds at 37° C. and 5% CO2 for 45 minutes. The final DMSO concentration was 0.2%. The media was damped after 45 minutes incubation. The cells were fixed with 40 μl of cold MeOH (-20° C.) for 20 minutes. The MeOH was damped and 50 μL of DPBS containing 1 μg/mL Hochst was added into the cell plates. The intensity of EGFP was quantitated by using Opera PHENIX® or OPERETTA® high content image system (Perkin Elmer) with 20× Water Objective and five field per well. The ratio of EGFP fluorescent intensity in nuclear over cytosol was analyzed using a 4-parameter nonlinear logistic equation to determine the potency of AhR agonists.

This passage reports EC50 results from patent US20240199608A1 (Eli Lilly and Company, priority 2022, published 2024).

Like-named read-outs stand apart in the source and are kept apart here. Some results are limits rather than exact numbers.

The EC50 is the concentration needed to bring the measured effect to its halfway point. For the compound `CC1CCc2c1cc(C(=O)Nc1ncccc1F)c1nncn21` (single isomer, unassigned) [Example 36, N-(3-Fluoropyridin-2-yl)-6-methyl-7,8-dihydro-6H-cyclopenta[e][1,2,4] triazolo[4,3-a]pyridine-4-carboxamide], the EC50 (class symbols) was 1 to 10 nM.

With `CC1CCc2c1cc(C(=O)Nc1cnn(C)n1)c1nncn21` (single isomer, unassigned) [Example 62, 6-Methyl-N-(2-methyl-2H-1,2,3-triazol-4-yl)-7,8-dihydro-6H-cyclopenta[e][1,2,4] triazolo[4,3-a]pyridine-4-carboxamide], the EC50 (class symbols) was in the range of 10 to 50 nM.

For the compound `C[C@H]1CCc2c1cc(C(=O)Nc1ncccn1)c1nncn21` (single isomer, unassigned) [Example 8, 6-Methyl-N-(pyrimidin-2-yl)-7,8-dihydro-6H-cyclopenta[e][1,2,4]triazolo [4,3-a]pyridine-4-carboxamide], the concentration for a half-maximal effect (EC50) (numeric values) is 25.3 nM.

Turning to `Cc1nnc2c(C(=O)Nc3ncc(F)cn3)cc3c(n12)CCC3C` (single isomer, unassigned) [Example 52, N-(5-Fluoropyrimidin-2-yl)-1,6-dimethyl-7,8-dihydro-6H-cyclopenta[e][1,2,4] triazolo[4,3-a]pyridine-4-carboxamide], the EC50 (class symbols) was over 50 nM.

Turning to `Cc1nnc2c(C(=O)Nc3ncc(F)cn3)cc3c(n12)CCC3C` (single isomer, unassigned) [Example 53, N-(5-Fluoropyrimidin-2-yl)-1,6-dimethyl-7,8-dihydro-6H-cyclopenta[e][1,2,4] triazolo[4,3-a]pyridine-4-carboxamide], the EC50 (class symbols) was over 50 nM.

`C[C@H]1CCc2c1cc(C(=O)Nc1ncc(F)cn1)c1nccn21` (single isomer, unassigned) [Example 14, N-(5-Fluoropyrimidin-2-yl)-6-methyl-7,8-dihydro-6H-cyclopenta[e]imidazo[1,2-a]pyridine-4-carboxamide]: the EC50 (numeric values) is 1.66 nM.

Consider `CC1CCc2c1cc(C(=O)Nc1ncccn1)c1nncn21` (single isomer, unassigned) [Example 7, 6-Methyl-N-(pyrimidin-2-yl)-7,8-dihydro-6H-cyclopenta[e][1,2,4] triazolo[4,3-a]pyridine-4-carboxamide], for which the EC50 (numeric values) came to 11.1 nM.

For the compound `CC1CCc2c1cc(C(=O)Nc1ccon1)c1nncn21` (single isomer, unassigned) [Example 33], where the note is “class symbols”, the EC50 is over 50 nM.

For `CC1CCc2c1cc(C(=O)Nc1ccon1)c1nncn21` (single isomer, unassigned) [Example 32], for the setting “class symbols”, the EC50 was 1 to 10 nM.

For `CC(C)c1nnc2c(C(=O)Nc3ncc(F)cn3)cc3c(n12)CCC3C` (single isomer, unassigned) [Example 54, N-(5-Fluoropyrimidin-2-yl)-1-isopropyl-6-methyl-7,8-dihydro-6H-cyclopenta[e][1,2,4] triazolo[4,3-a]pyridine-4-carboxamide], where the note is “class symbols”, the EC50 is over 50 nM.

`CC1CCc2c1cc(C(=O)Nc1ccc(C(F)(F)F)cn1)c1nncn21` (single isomer, unassigned) [Example 35, 6-Methyl-N-(5-(trifluoromethyl)pyridin-2-yl)-7,8-dihydro-6H-cyclopenta[e][1,2,4] triazolo[4,3-a]pyridine-4-carboxamide]: the 50% effective concentration (EC50) (class symbols) fell in the range of 1 to 10 nM.

With `COc1cnc(NC(=O)c2cc3c(n4cnnc24)CCC3C)nc1` (single isomer, unassigned) [Example 48, N-(5-Methoxypyrimidin-2-yl)-6-methyl-7,8-dihydro-6H-cyclopenta[e][1,2,4] triazolo[4,3-a]pyridine-4-carboxamide], for the setting “class symbols”, the EC50 was in the range of 10 to 50 nM.

Take `CC1CCc2c1cc(C(=O)Nc1ccc(F)cn1)c1nncn21` (single isomer, unassigned) [Example 42, N-(5-Fluoropyridin-2-yl)-6-methyl-7,8-dihydro-6H-cyclopenta[e][1,2,4] triazolo[4,3-a]pyridine-4-carboxamide]: where the note is “class symbols”, the EC50 was 1 to 10 nM.

Consider `O=C(Nc1ncc(F)cn1)c1cc2c(n3cnnc13)CCC2C1CCC1` (single isomer, unassigned) [Example 65, 6-Cyclobutyl-N-(5-fluoropyrimidin-2-yl)-7,8-dihydro-6H-cyclopenta[e][1,2,4] triazolo[4,3-a]pyridine-4-carboxamide], for which, under “class symbols”, the EC50 was in the range of 1 to 10 nM.

As for `CC1CCc2c1cc(C(=O)Nc1ccccn1)c1nncn21` (single isomer, unassigned) [Example 3], the EC50 (numeric values) is 5.37 nM.

`CC1CCc2c1cc(C(=O)Nc1ncc(C(F)(F)F)cn1)c1nncn21` (single isomer, unassigned) [Example 26, 6-Methyl-N-(5-(trifluoromethyl)pyrimidin-2-yl)-7,8-dihydro-6H-cyclopenta[e][1,2,4] triazolo[4,3-a]pyridine-4-carboxamide]: under “class symbols”, the 50% effective concentration (EC50) is 1 to 10 nM.

For `CC1CCc2c1cc(C(=O)Nc1ccc(C(F)(F)F)cn1)c1nncn21` (single isomer, unassigned) [Example 34, 6-Methyl-N-(5-(trifluoromethyl)95yridine-2-yl)-7,8-dihydro-6H-cyclopenta[e][1,2,4] triazolo[4,3-a]pyridine-4-carboxamide], for the setting “class symbols”, the EC50 fell in the range of 1 to 10 nM.

Take `Cc1cnc(NC(=O)c2cc3c(n4cnnc24)CCC3C)nc1` (single isomer, unassigned) [Example 29, 6-Methyl-N-(5-methylpyrimidin-2-yl)-7,8-dihydro-6H-cyclopenta[e][1,2,4]tria zolo[4,3-a]pyridine-4-carboxamide]: for the setting “class symbols”, the EC50 is 10 to 50 nM.

On to `CC1CCc2c1cc(C(=O)Nc1ncccn1)c1nccn21` (single isomer, unassigned) [Example 11, 6-Methyl-N-(pyrimidin-2-yl)-7,8-dihydro-6H-cyclopenta[e]imidazo[1,2-a]pyridine-4-carboxamide], for which, for the setting “numeric values”, the 50% effective concentration (EC50) stood at 1.58 nM.

Turning to `O=C(Nc1ncc(F)cn1)c1cc2c(n3cnnc13)CCC2C1CC1` (single isomer, unassigned) [Example 67, 6-Cyclopropyl-N-(5-fluoropyrimidin-2-yl)-7,8-dihydro-6H-cyclopenta[e][1,2,4] triazolo[4,3-a]pyridine-4-carboxamide], the EC50 (class symbols) was 1 to 10 nM.

`CC1CCc2c1cc(C(=O)Nc1ccn(C)n1)c1nncn21` (single isomer, unassigned) [Example 63, 6-Methyl-N-(1-methyl-1H-pyrazol-3-yl)-7,8-dihydro-6H-cyclopenta[e][1,2,4] triazolo[4,3-a]pyridine-4-carboxamide]: the half-maximal effective concentration (EC50) (class symbols) is 10 to 50 nM.

As to `CC1CCc2c1cc(C(=O)Nc1ccc(F)cn1)c1nncn21` (single isomer, unassigned) [Example 43, N-(5-Fluoropyridin-2-yl)-6-methyl-7,8-dihydro-6H-cyclopenta[e][1,2,4]triazolo[4,3-a]pyridine-4-carboxamide], under “class symbols”, the EC50 lay within 1 to 10 nM.

Turning to `CC(C)C1CCc2c1cc(C(=O)Nc1ncc(F)cn1)c1nncn21` (single isomer, unassigned) [Example 58, N-(5-Fluoropyrimidin-2-yl)-6-isopropyl-7,8-dihydro-6H-cyclopenta[e][1,2,4] triazolo[4,3-a]pyridine-4-carboxamide], for the setting “class symbols”, the concentration giving a half-maximal response (EC50) was 1 to 10 nM.

As to `CC1CCc2c1cc(C(=O)Nc1ncco1)c1nncn21` (single isomer, unassigned) [Example 31, 6-Methyl-N-(oxazol-2-yl)-7,8-dihydro-6H-cyclopenta[e][1,2,4] triazolo[4,3-a]pyridine-4-carboxamide], the EC50 (class symbols) was 10 to 50 nM.
